Measured values taken from paper PMC6707612, “Cyclic-di-GMP binds to histidine kinase RavS to control RavS-RavR phosphotransfer and regulates the bacterial lifestyle transition between virulence and swimming” (PLoS Pathogens, 2019).
Where “and” joins values, the source holds several entries; their conditions need not be identical. Equal values may be shown once.

Key:
Experiment in all cases: microscale thermophoresis (MST) binding
[1] = target: RavA (Xanthomonas campestris pv. campestris, UniProt Q8P9A8); conditions: 20 nM fluorescein-labelled nucleotide, read-out: dissociation constant (Kd)
RavA, sequence (Q8P9A8 entry or part of it): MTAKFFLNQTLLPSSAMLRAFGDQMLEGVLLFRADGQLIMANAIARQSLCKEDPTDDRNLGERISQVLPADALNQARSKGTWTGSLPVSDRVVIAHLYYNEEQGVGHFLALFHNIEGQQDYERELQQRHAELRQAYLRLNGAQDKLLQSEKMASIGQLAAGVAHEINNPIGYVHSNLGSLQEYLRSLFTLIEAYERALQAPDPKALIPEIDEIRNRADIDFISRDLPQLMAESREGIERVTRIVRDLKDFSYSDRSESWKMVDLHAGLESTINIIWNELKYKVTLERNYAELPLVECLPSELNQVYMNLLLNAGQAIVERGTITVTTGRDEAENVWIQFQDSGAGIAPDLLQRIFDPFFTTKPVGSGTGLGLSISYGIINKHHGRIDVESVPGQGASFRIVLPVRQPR
Experimental: (§1) The interaction between c-di-GMP nucleotides and various proteins was measured by using MST with a fluorescein-labelled c-di-GMP (2′-Fluo-AHC-c-di-GMP, abbreviated as fl-c-di-GMP; 2′-Fluo-AHC-c-di-AMP, fl-c-di-AMP; 2′-Fluo-AHC-cGMP, fl-cGMP; Biolog, Germany). These chemicals contain carboxyfluorescein that has excitation and emission wavelengths of 497 nm and 520 nm, respectively, which can be detected directly by a MST instrument. The experiments were performed on a Monolith NT.115 device using standard treated capillaries (NanoTemper Technologies, Germany). The concentration of the particular protein varied from 0.036 to 150 μM with a 2-fold gradient and the concentration of fl-c-di-GMP was constant at 20 nM. Fluorescence intensity due to thermophoresis was recorded using the blue channel optics of the instrument (λex = 470 ± 15 nm, λem = 520 ± 10 nm) during a 30 s period of infrared laser heating at 80% of the maximum laser power, followed by a 5 s cooling period. Measurements were performed in buffer containing 20 mM HEPES, pH 7.5, 150 mM NaCl, 2 mM MgCl2, 2 mM DTT and 0.05% Tween 20. […]
(§2) Supplementary file ppat.1007952.s007.pdf: S7 Fig c-di-GMP specifically binds to RavS to enhance the RavS-RavR phosphotransfer. […] The interactions of RavS^ΔN, RavA, VgrS and RavR^ΔEAL with fl-c-di-GMP were measured by microscale thermophoresis (MST). Twenty nanomolar fluorescein-labelled nucleotides and increasing concentrations of proteins were co-incubated and potential interactions were measured by MST. The dissociation constant (Kd) was determined to estimate the binding affinity. […]
(§3) (b) RavSΔN specifically interacts with fl-c-di-GMP. The interactions of RavSΔN, RavA, VgrS and RavRΔEAL with fl-c-di-GMP were measured by microscale thermophoresis (MST). Twenty nanomolar fluorescein-labelled nucleotide and increasing concentrations of proteins were co-incubated and potential interactions were measured by MST.
(§4) The dissociation constant (Kd) was determined to estimate the binding affinity. […]

[2] = target: T1, RavS^ΔN (Xanthomonas campestris pv. campestris, UniProt Q8P9A6); conditions: 20 nM fluorescein-labelled nucleotide, read-out: dissociation constant (Kd)
T1 sequence (Q8P9A6 352-697): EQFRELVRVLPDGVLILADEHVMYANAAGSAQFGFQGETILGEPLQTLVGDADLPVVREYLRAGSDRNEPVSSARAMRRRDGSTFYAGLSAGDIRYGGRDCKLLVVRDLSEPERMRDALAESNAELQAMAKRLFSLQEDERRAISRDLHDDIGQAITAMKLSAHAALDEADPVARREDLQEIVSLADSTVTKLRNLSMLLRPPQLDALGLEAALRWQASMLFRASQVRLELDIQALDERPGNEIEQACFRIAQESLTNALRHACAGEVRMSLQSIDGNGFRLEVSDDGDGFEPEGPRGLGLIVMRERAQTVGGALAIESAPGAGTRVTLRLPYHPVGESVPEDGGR
Experimental: as §1, §2, §3, §4

[3] = target: VgrS (Xanthomonas campestris pv. campestris, UniProt Q8P666); conditions: 20 nM fluorescein-labelled nucleotide, read-out: dissociation constant (Kd)
VgrS, sequence (Q8P666 entry or part of it): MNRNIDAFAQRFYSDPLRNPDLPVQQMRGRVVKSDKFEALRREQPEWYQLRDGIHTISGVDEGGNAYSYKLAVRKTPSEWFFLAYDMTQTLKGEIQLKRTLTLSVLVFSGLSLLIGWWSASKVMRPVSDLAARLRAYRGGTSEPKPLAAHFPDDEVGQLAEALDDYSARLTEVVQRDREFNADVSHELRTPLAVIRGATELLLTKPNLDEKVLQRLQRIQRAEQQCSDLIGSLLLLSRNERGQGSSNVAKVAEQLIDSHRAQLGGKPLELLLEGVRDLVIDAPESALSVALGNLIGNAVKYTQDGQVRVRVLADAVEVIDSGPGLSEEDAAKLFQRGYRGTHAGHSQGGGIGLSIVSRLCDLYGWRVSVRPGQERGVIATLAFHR
Experimental: as §1, §2, §3, §4

[4] = target: CA domain of RavS (Xanthomonas campestris pv. campestris, UniProt Q8P9A6); conditions: read-out: dissociation constant (Kd)
Experimental: Fig 6 Arg^656 in the CA domain of RavS is a key residue for c-di-GMP binding. (a, b) c-di-GMP binds to the DHp-CA domain of RavS. PAS-A, PAS-B and DHp-CA in (a), and DHp and CA domains of RavS in (b), were purified and the interaction with c-di-GMP was measured by MST. Each assay was repeated three times. Standard deviations are shown. (c) Molecular docking model of the interaction between c-di-GMP and DHp-CA of RavS. c-di-GMP is shown as a ball-and-stick model and DHp-CA is shown in ribbon representation. (d) Schematic view of the predicted docking site between c-di-GMP and DHp-CA. Potential hydrogen bonds are indicated as blue dashed lines. Autodock software was used to predict the interaction. (e) Effect of amino acid substitutions on RavS–c-di-GMP binding. Ten recombinant proteins of the DHp-CA region, each containing a substitution of a putative essential residue involved in c-di-GMP binding, were used in the MST assay to quantify the Kd value of RavS–c-di-GMP binding. fl-c-di-GMP was used in the MST assay. Each experiment was repeated three times. […] The reactions were terminated with 5× SDS loading buffer and the products were separated by 12% SDS-PAGE, exposed to a phosphor screen and analysed by Typhoon FLA7000. […]
The interaction between c-di-GMP nucleotides and various proteins was measured by using MST with a fluorescein-labelled c-di-GMP (2′-Fluo-AHC-c-di-GMP, abbreviated as fl-c-di-GMP; 2′-Fluo-AHC-c-di-AMP, fl-c-di-AMP; 2′-Fluo-AHC-cGMP, fl-cGMP; Biolog, Germany). These chemicals contain carboxyfluorescein that has excitation and emission wavelengths of 497 nm and 520 nm, respectively, which can be detected directly by a MST instrument. […] Fluorescence intensity due to thermophoresis was recorded using the blue channel optics of the instrument (λex = 470 ± 15 nm, λem = 520 ± 10 nm) during a 30 s period of infrared laser heating at 80% of the maximum laser power, followed by a 5 s cooling period. […]

With `Nc1nc2c(ncn2[C@@H]2O[C@@H]3COP(=O)(O)O[C@H]4[C@@H](OC(=O)NCCCCCCNC(=O)c5ccc6c(c5)C(=O)OC65c6ccc(O)cc6Oc6cc(O)ccc65)[C@H](n5cnc6c(=O)[nH]c(N)nc65)O[C@@H]4COP(=O)(O)O[C@H]3[C@H]2O)c(=O)[nH]1` [fl-c-di-GMP, 2′-Fluo-AHC-c-di-GMP] the Kd [1] was 116 µM and > 80 µM, the Kd [2] was 5.62 ± 0.74 µM and the Kd [3] was 88.1 µM and > 80 µM. For the same molecule, the Kd [4] was 17.1 ± 3.78 µM.
